Assay: Biodistribution of platinum after oral administration (ICP-MS)
Assay type: in vivo, C57BL mice
Conditions: LLC-bearing mice; for Percentage of the administered drug reaching the tumor mass / Tissue platinum distribution: single oral dose 20 mg kg-1, 4 h; for Platinum concentration in blood: whole blood, single oral dose 20 mg kg-1, 1 and 4 h
Text: It was previously shown for a similar series of dicarboxylato Pt(IV) compounds that organic chains of intermediate length offer the best compromise between lipophilicity and water solubility for oral administration. […] The details of these experiments and their results are described in the Supplementary material and Supplementary Fig. S2. […] In contrast, platinum scarcely accumulated in intestine and lung. Noteworthy, a slightly higher platinum content was found in the tumor mass in the mice treated with Pt(IV)diOA than in those treated with Pt(IV)diVPA. […]
Biodistribution after oral administration
For Pt(IV) complexes having axial carboxylato ligands, the lipophilicity increases as the number of carbon atoms in the chain increases. This lipophilicity increase offers a beneficial effect on the cellular accumulation and in vitro cytotoxic potency up to a point where the drop in water solubility impedes the administration of the drugs (around C8-C10 carbon chains)1,2.
Moreover, excessive lipophilicity can hinder transport of such Pt(IV) derivatives in vivo across intestinal epithelial cells making them more vulnerable to hepatic metabolism.
It was previously shown for a similar series of dicarboxylato Pt(IV) compounds (except the VPA-derivative) that organic chains of intermediate length offer the best compromise between lipophilicity and water solubility for oral administration3. To better understand the biodistribution properties of the Pt(IV) complexes, following administered by oral gavage in a -1 single dose (20 mg kg ), tissue samples collected from LLC-bearing mice were analyzed by ICP-MS. After 1 and 4 h, blood samples were collected and subsequently animals were sacrificed, and tissue samples were collected. The platinum levels in tumor, kidney, liver, intestine, lung and whole blood aliquots are shown in Fig. S2, panels A and B. It is important to recall that using this protocol it is possible to estimate only the overall Pt content and not its oxidation state or speciation [i.e. Pt(IV) metabolites or Pt(II) metabolites produced by reduction and further interactions]. […]
Biodistribution after oral administration. For in vivo kinetic experiments, 8-10 week old C57BL mice (24 ± 3 g body weight) received the drugs as an oral gavage single dose of -1 butanoato, hexanoato, octanoato and valproate Pt(IV) complexes (20 mg kg , dissolved in a vehicle solution composed of 20% Cremophor EL (v/v), 20% PEG400 (v/v) and 60% saline solution (v/v)). At each time point (1 and 4 h, respectively), animals were anesthetized, and blood was collected by a vain tail puncture. In addition, samples of organs (kidney, liver, lung and intestine) and tumor were collected at 4 h and stored at −20 °C. Blood, organ samples and tumor were subjected to quantitative determination of platinum content.−1 The samples were treated with highly pure nitric acid ([Pt] ≤ 0.01 μg kg TraceSELECT Ultra, Sigma Chemical Co.) and transferred into a microwave Teflon vessel. Subsequently, samples were submitted to the standard procedure using a speed microwave. After cooling, each mineralized sample was analyzed for platinum by ICP-MS (ThermoOptek X Series 2). Instrumental settings were optimized to achieve maximum sensitivity for platinum. For quantitative determination, the most abundant isotopes of platinum and indium (used as internal standard) were measured at m/z 195 and 115, respectively.
Accumulation of platinum in tumor cells treated with Pt(IV) complexes and cisplatin (in cellulo experiments) in the absence of serum. A2780 cells were seeded in 10 mm Petri dishes and treated with the platinum complexes (10 μM) for 4 h in complete medium, i.e. + 10 % FBS (HyClone, GE Healthcare). At time zero, 100 μL of medium was taken out from each sample to check the extracellular Pt concentration. At the end of the exposure, cells were washed three times with phosphate-buffered saline (PBS), detached from the Petri dishes using 0.05% Trypsin 1X + 2% EDTA (HyClone, GE Healthcare) and harvested in fresh […]

Row | SMILES | Percentage of the administered drug reaching the tumor mass | Tissue platinum distribution | Platinum concentration in blood
1 | CCCCCCCC(=O)[O][Pt]([NH2])([NH2])([Cl])([Cl])[O]C(=O)CCCCCCC [Pt(IV)diOA, cis, cis, trans-[Pt(IV)(NH3)2Cl2(OA)2]] | about 18% | the highest platinum concentrations were found in liver followed by tumor tissue and kidney | around 0.5 μg Pt mL^−1
2 | CCCC(CCC)C(=O)[O][Pt]([NH2])([NH2])([Cl])([Cl])[O]C(=O)C(CCC)CCC [Pt(IV)diVPA, cis, cis, trans-[Pt(IV)(NH3)2Cl2(VPA)2]] | ~10% | the highest platinum concentrations were found in liver followed by tumor tissue and kidney | around 0.5 μg Pt mL^−1
